Test results taken from patent US8999942B2, “Polyol modified aminoglycoside-lipid conjugates” (University of Manitoba, priority 2010, dated 2015).

Assays:
[1] = tested on: S. epidermidis ATCC 14990; experiment: MIC, broth macrodilution (CLSI), S. epidermidis; type: cell-based, Staphylococcus epidermidis; details: footnote ATCC 1490
Procedure: (§1) All compounds were tested against American Type Culture Collection (ATCC) reference strains as well as clinical isolates from the Canadian Intensive Care Unit (CAN-ICU) study (Zhanel, et al., 2008). […] Antibacterial activity against Gram-positive and Gram-negative microorganisms was performed via broth macrodilution tests using CLSI methodology (Clinical and Laboratory Standards Institute, 2006). The minimum inhibitory concentration (MIC) in μg/mL of the aminoglycoside-derived amphiphilic polycarbamates and polyethers were determined using established methods (Clinical and Laboratory Standards Institute, 2006) and are shown in Tables 1 and 2, respectively.

[2] = tested on: Pseudomonas aeruginosa ATCC 27853; experiment: MIC, broth macrodilution (CLSI), P. aeruginosa ATCC 27853; type: cell-based
Procedure: as §1

[3] = tested on: Acinetobacter baumanni (CAN-ICU 63169); experiment: MIC, broth macrodilution (CLSI), A. baumannii; type: cell-based; details: A. baumannii CAN-ICU 63169
Procedure: as §1

[4] = tested on: Streptococcus pneumoniae ATCC 49619; experiment: MIC, broth macrodilution (CLSI), S. pneumoniae ATCC 49619; type: cell-based
Procedure: as §1

[5] = tested on: P. aeruginosa (Gent-R) CAN-ICU 62308; experiment: MIC, broth macrodilution (CLSI), P. aeruginosa CAN-ICU 62308; type: cell-based, Pseudomonas aeruginosa
Procedure: as §1

[6] = tested on: methicillin-resistant Staphylococcus epidermidis (MRSE) CAN-ICU 61589; experiment: MIC, broth macrodilution (CLSI), MRSE; type: cell-based; details: methicillin-resistant S. epidermidis, footnote (ATCC 14990)
Procedure: as §1

[7] = tested on: S. pneumoniae ATCC 13883; experiment: MIC, broth macrodilution (CLSI), S. pneumoniae ATCC 13883; type: cell-based
Procedure: as §1

[8] = tested on: methicillin-resistant Staphylococcus aureus (MRSA) ATCC 33592; experiment: MIC, broth macrodilution (CLSI), MRSA ATCC 33592; type: cell-based; details: for Minimal Inhibitory Concentration (MIC): MRSA, methicillin-resistant S. aureus ATCC 33592
Procedure: as §1

[9] = tested on: E. coli ATCC 25922; experiment: MIC, broth macrodilution (CLSI), E. coli ATCC 25922; type: cell-based
Procedure: as §1

[10] = tested on: S. aureus ATCC 29213; experiment: MIC, broth macrodilution (CLSI), S. aureus ATCC 29213; type: cell-based, Staphylococcus aureus
Procedure: as §1

[11] = tested on: Stenotrophomonas maltophilia (CAN-ICU 62585); experiment: MIC, broth macrodilution (CLSI), S. maltophilia; type: cell-based; details: for Minimal Inhibitory Concentration (MIC): S. maltophilia, footnote CAN-ICU 62584
Procedure: as §1

[12] = tested on: E. coli (Gentamicin-resistant) CAN-ICU 61714; experiment: MIC, broth macrodilution (CLSI), gentamicin-resistant E. coli; type: cell-based; details: footnote ATCC 6174 (gentamicin resistant)
Procedure: as §1

[13] = tested on: E. coli (Amikacin MIC 32) CAN-ICU 63074; experiment: MIC, broth macrodilution (CLSI), E. coli CAN-ICU 63074; type: cell-based
Procedure: as §1

[14] = tested on: Gram-positive and Gram-negative strains tested; experiment: Antibacterial activity, strains tested; type: cell-based
Procedure: as §1

[15] = tested on: S. aureus, MRSA, S. epidermidis and MRSE; experiment: MIC, S. aureus, MRSA, S. epidermidis and MRSE; type: cell-based, Staphylococcus aureus, Staphylococcus epidermidis
Procedure: as §1

[16] = tested on: P. aeruginosa (two strains); experiment: MIC, P. aeruginosa two strains; type: cell-based, Pseudomonas aeruginosa
Procedure: as §1

[17] = tested on: Gram-negative strains; experiment: Gram-negative antibacterial activity; type: cell-based; details: Gram-negatives E. coli and S. maltophilia
Procedure: as §1

[18] = tested on: three strains of E. coli; experiment: MIC, three strains of E. coli; type: cell-based
Procedure: as §1

| SMILES | Minimal Inhibitory Concentration (MIC) [1] [µg/mL] | Minimal Inhibitory Concentration (MIC) [2] [µg/mL] | Minimal Inhibitory Concentration (MIC) [3] [µg/mL] | Minimal Inhibitory Concentration (MIC) [4] [µg/mL] | Minimal Inhibitory Concentration (MIC) [5] [µg/mL] | Minimal Inhibitory Concentration (MIC) [6] [µg/mL] | Minimal Inhibitory Concentration (MIC) [7] [µg/mL] | Minimal Inhibitory Concentration (MIC) [8] [µg/mL] | Minimal Inhibitory Concentration (MIC) [9] [µg/mL] | Minimal Inhibitory Concentration (MIC) [10] [µg/mL] | Minimal Inhibitory Concentration (MIC) [11] [µg/mL] | Minimal Inhibitory Concentration (MIC) [12] [µg/mL] | Minimal Inhibitory Concentration (MIC) [13] [µg/mL] | antibacterial activity (in words) [14] | also measured |
| --- | --- | --- | --- | --- | --- | --- | --- | --- | --- | --- | --- | --- | --- | --- | --- |
| COCC1OC(OC2C(N)CC(N)C(OC3OC(CN)C(OC)C(OC)C3OC)C2OC)C(OC)C(N)C1OC.O=C(O)C(F)(F)F.O=C(O)C(F)(F)F.O=C(O)C(F)(F)F.O=C(O)C(F)(F)F (stereo not drawn) [Compound 17] | 256 | >256 | >256 | >256 | >256 | >256 | >256 | >256 | >256 | >256 | >256 | >256 | >256 | inactivity |  |
| NCC1OC(OC2C(N)CC(N)C(OCc3ccccc3)C2OC2OC(COCc3ccccc3)C(OC3OC(CN)C(OCc4ccccc4)C(OCc4ccccc4)C3N)C2OCc2ccccc2)C(N)C(OCc2ccccc2)C1OCc1ccccc1.O=C(O)C(F)(F)F.O=C(O)C(F)(F)F.O=C(O)C(F)(F)F.O=C(O)C(F)(F)F.O=C(O)C(F)(F)F.O=C(O)C(F)(F)F (stereo not drawn) [Compound 11] | 2 | 32 | 16 | 16 | 64 | 2 | 8 | 4 | 8 | 4 | 8 | 16 | 4 |  | MIC [15]: 2 to 4 µg/mL; fold decrease in activity compared to polycarbamate analog 1 ([11]; against S. maltophilia): 2 fold; MIC [16]: 32 to 64 µg/mL |
| COCC1OC(OC2C(OC)C(N)CC(N)C2OC2OC(CN)C(OC)C(OC)C2N)C(OC)C1OC1OC(CN)C(OC)C(OC)C1N.O=C(O)C(F)(F)F.O=C(O)C(F)(F)F.O=C(O)C(F)(F)F.O=C(O)C(F)(F)F.O=C(O)C(F)(F)F.O=C(O)C(F)(F)F (stereo not drawn) [Compound 14] | 256 | >256 | >256 | >256 | >256 | >256 | >256 | >256 | >256 | >256 | >256 | >256 | >256 | inactivity |  |
| CCCCCCNC(=O)OCC1OC(OC2C(NC(=O)C(CCN)OC(=O)NCCCCCC)CC(N)C(OC3OC(CN)C(OC(=O)NCCCCCC)C(OC(=O)NCCCCCC)C3OC(=O)NCCCCCC)C2OC(=O)NCCCCCC)C(OC(=O)NCCCCCC)C(N)C1OC(=O)NCCCCCC.O=C(O)C(F)(F)F.O=C(O)C(F)(F)F.O=C(O)C(F)(F)F.O=C(O)C(F)(F)F (stereo not drawn) [Compound 9] | 4 | 64 | >128 | 32 | 16 | 4 | >128 | 4 | 4 | 4 | 16 | 8 | 4 |  | fold improvement compared to 6 [17]: 8-32 fold |
| NCCC(OCc1ccccc1)C(=O)NC1CC(N)C(OC2OC(CN)C(OCc3ccccc3)C(OCc3ccccc3)C2OCc2ccccc2)C(OCc2ccccc2)C1OC1OC(COCc2ccccc2)C(OCc2ccccc2)C(N)C1OCc1ccccc1.O=C(O)C(F)(F)F.O=C(O)C(F)(F)F.O=C(O)C(F)(F)F.O=C(O)C(F)(F)F (stereo not drawn) [Compound 18] | 1 | 128 | 32 | 32 | 64 | 1 | 16 | 4 | 16 | 4 | 32 | 16 | 16 |  |  |
| NCC1OC(OC2C(N)CC(N)C(OC(=O)Nc3ccccc3)C2OC(=O)Nc2ccccc2)C(N)C(OC(=O)Nc2ccccc2)C1OC(=O)Nc1ccccc1.O=C(O)C(F)(F)F.O=C(O)C(F)(F)F.O=C(O)C(F)(F)F.O=C(O)C(F)(F)F (stereo not drawn) [Compound 10] | 8 | 128 | 256 | >256 | 128 | 8 | 64 | 16 | 32 | 16 | 64 | 32 | 32 |  |  |
| COCC1OC(OC2C(NC(=O)C(CCN)OC)CC(N)C(OC3OC(CN)C(OC)C(OC)C3OC)C2OC)C(OC)C(N)C1OC.O=C(O)C(F)(F)F.O=C(O)C(F)(F)F.O=C(O)C(F)(F)F.O=C(O)C(F)(F)F (stereo not drawn) [Compound 20] | >256 | >256 | >256 | >256 | >256 | >256 | >256 | >256 | >256 | >256 | >256 | >256 | >256 | inactivity |  |
| NCC1OC(OC2C(N)CC(N)C(OC(=O)Nc3ccccc3)C2OC2OC(COC(=O)Nc3ccccc3)C(OC3OC(CN)C(OC(=O)Nc4ccccc4)C(OC(=O)Nc4ccccc4)C3N)C2OC(=O)Nc2ccccc2)C(N)C(OC(=O)Nc2ccccc2)C1OC(=O)Nc1ccccc1.O=C(O)C(F)(F)F.O=C(O)C(F)(F)F.O=C(O)C(F)(F)F.O=C(O)C(F)(F)F.O=C(O)C(F)(F)F.O=C(O)C(F)(F)F (stereo not drawn) [Compound 1] | 0.5 | 256 | 32 | 16 | 128 | 0.5 | 256 | 1 | 32 | 1 | 4 | 16 | 16 |  | fold enhancement compared to unmodified Neomycin B ([8]; against MRSA): 256 fold; MIC [15]: ≤ 1 µg/mL; MIC fold lower compared to amphiphilic di- and tetracationic lipopeptides (Serrano et al., 2009) ([11]; against S. maltophilia): 32-64 fold; fold increased susceptibility over Neomycin B ([11]; against multidrug-resistant S. maltophilia): over 128 fold; MIC fold reduced compared to Neomycin B sulfate ([18]; Neomycin B susceptible E. coli): 2-8 fold; MIC ([18]; three strains of E. coli): 16 to 32 µg/mL |
